Measurements from the CheMixHub viscosity set.

Experiment: xn = mol fraction of the nth substance listed

Cc1ccccc1C + CCCCCCCCCCO
viscosity [mPa·s], 101 kPa
Conditions | 298.15 K | 308.15 K
x1 = 0.0766 | 9.611 | 6.581
x1 = 0.1331 | 8.188 | 5.606
x1 = 0.1823 | 7.108 | 4.864
x1 = 0.2509 | 5.802 | 3.987
x1 = 0.3173 | 4.749 | 3.288
x1 = 0.3896 | 3.813 | 2.671
x1 = 0.4556 | 3.107 | 2.214
x1 = 0.5261 | 2.509 | 1.815
x1 = 0.6054 | 1.983 | 1.459
x1 = 0.6597 | 1.695 | 1.264
x1 = 0.7364 | 1.374 | 1.041
x1 = 0.8029 | 1.156 | 0.895
x1 = 0.873 | 0.977 | 0.781
x1 = 0.9447 | 0.84 | 0.698

CC(C)[C@@H]1CC[C@@H](C)C[C@H]1O + CCCCCCCCCO
Conditions | viscosity [mPa·s]
298.15 K, 101.33 kPa, x1 = 0.5 | 35.03

CC(C)[C@@H]1CC[C@@H](C)C[C@H]1O + CCCCCCCCO
Conditions | viscosity [mPa·s]
298.15 K, 101.33 kPa, x1 = 0.5 | 13.1

CCCCCCCCCCO + CCCCCCCCO
viscosity [mPa·s], 101.8 kPa
Conditions | x2 = 0.1199 | x2 = 0.3407 | x2 = 0.5487 | x2 = 0.7394 | x2 = 0.918
298.15 K | 11.14 | 10.21 | 9.324 | 8.588 | 7.888
308.15 K | 7.791 | 7.162 | 6.608 | 6.092 | 5.658
318.15 K | 5.571 | 5.156 | 4.78 | 4.438 | 4.135

CN1CCN(C)C1=O + CCCCCCCCn1cc[n+](C)c1.[Cl-]
100 kPa
Conditions | viscosity [mPa·s]
293.15 K, x2 = 0.6016 | 985.8
313.15 K, x2 = 0.7994 | 773.5
318.15 K, x2 = 0.105 | 3.715
323.15 K, x2 = 0.7994 | 404.5

CC(C)[C@@H]1CC[C@@H](C)C[C@H]1O + CCCCCCCO
Conditions | viscosity [mPa·s]
298.15 K, 101.33 kPa, x1 = 0.5 | 27.53

CCCCCCCCCCO + CCCCCCCO
viscosity [mPa·s], 101.8 kPa
Conditions | x2 = 0.1302 | x2 = 0.3682 | x2 = 0.5771 | x2 = 0.7604 | x2 = 0.9256
298.15 K | 10.82 | 9.364 | 8.193 | 7.155 | 6.307
308.15 K | 7.586 | 6.635 | 5.836 | 5.18 | 4.596
318.15 K | 5.438 | 4.801 | 4.264 | 3.812 | 3.413

CCOC(=O)OCC + CCCCCCCO
101 kPa
Conditions | viscosity [mPa·s]
293.15 K, x1 = 0.0488 | 5.846
293.15 K, x1 = 0.1045 | 4.795
293.15 K, x1 = 0.1829 | 3.725
293.15 K, x1 = 0.3015 | 2.669
293.15 K, x1 = 0.4047 | 2.08
293.15 K, x1 = 0.4807 | 1.748
293.15 K, x1 = 0.5714 | 1.453
293.15 K, x1 = 0.7024 | 1.153
293.15 K, x1 = 0.7985 | 0.995
293.15 K, x1 = 0.9023 | 0.873
293.15 K, x1 = 0.9522 | 0.831
303.15 K, x1 = 0.06097 | 4.061
303.15 K, x1 = 0.1159 | 3.411
303.15 K, x1 = 0.1861 | 2.773
303.15 K, x1 = 0.296 | 2.086
303.15 K, x1 = 0.4 | 1.655
303.15 K, x1 = 0.4747 | 1.417
303.15 K, x1 = 0.5946 | 1.149
303.15 K, x1 = 0.7056 | 0.955
303.15 K, x1 = 0.7928 | 0.851
303.15 K, x1 = 0.9047 | 0.755
303.15 K, x1 = 0.9521 | 0.727
313.15 K, x1 = 0.05658 | 3.024
313.15 K, x1 = 0.1024 | 2.586
313.15 K, x1 = 0.1931 | 2.03
313.15 K, x1 = 0.3063 | 1.576
313.15 K, x1 = 0.3932 | 1.348
313.15 K, x1 = 0.4994 | 1.121
313.15 K, x1 = 0.5837 | 0.974
313.15 K, x1 = 0.7095 | 0.811
313.15 K, x1 = 0.7894 | 0.736
313.15 K, x1 = 0.8956 | 0.661
313.15 K, x1 = 0.9569 | 0.634

CC(C)[C@@H]1CC[C@@H](C)C[C@H]1O + CCCCCCO
Conditions | viscosity [mPa·s]
298.15 K, 101.33 kPa, x1 = 0.5 | 22.95

CCCCCCCCCCO + CCCCCCO
viscosity [mPa·s], 101.8 kPa
Conditions | x2 = 0.1493 | x2 = 0.3989 | x2 = 0.6071 | x2 = 0.7831 | x2 = 0.9346
298.15 K | 10.38 | 8.464 | 7.01 | 5.822 | 4.905
308.15 K | 7.307 | 6.019 | 5.068 | 4.271 | 3.643
318.15 K | 5.25 | 4.393 | 3.745 | 3.191 | 2.75
